Earlier results, collected in US9597362B2, “Use of probiotic bacteria in the treatment of infection” (TEAGASC, THE AGRICULTURE AND FOOD DEVELOPMENT AUTHORITY, priority 2003, dated 2017).

Experiments:
[1] = system: Gram-positive bacteria; conditions: including methicillin resistant staphylococci, vancomycin resistant enterococci, penicillin resistant pneumococci
[2] = system: Salmonella typhimurium

Substance	bactericidal spectrum [1]	pathogen translocation compared with control mice ([2]; mice fed the probiotic prior to oral challenge)	survival ([2]; probiotic-fed groups)
Lacticin 3147	kills all Gram-positive bacteria tested to date	–	–
Lactobacillus acidophilus	–	reduced pathogen translocation to the spleen and liver	increased survival of mice
